Data as given in EP0459298A2, “Use of substituted beta-hydroxyethylamines as potent inhibitors of a fungal exoenzyme” (HOECHST AKTIENGESELLSCHAFT, priority 1990, dated 1991).
Read-outs that look alike come from different tables or passages of the source.

What was measured:
[1] = system: Trichophyton mentagrophytes; test: Percent killing of Trichophyton mentagrophytes in vitro; type: cell-based; conditions: nach 14 h in aqua dest., read-out: %-Abtötung von Trichophyton mentagrophytes; for killing at 2.5 µg/mL: 2,5 µg/ml
Experimental: (Werte in %-Abtötung von Trichophyton mentagrophytes nach 14 h in aqua dest.)

Candida albicans = system: Candida albicans; set-up: species or system Maus; conditions: in vivo; for Überlebenszeit (bez. auf Fluconazol = 100 % ): 50 mg/kg
Excerpt: Als Beispiele für die systemische in vivo-Wirksamkeit der Verbindungen dient die systemische Candida albicans Infektion bei der Maus.
Ziel dieser Methode ist es, den Effekt von Präparaten auf eine systemische Candida albicans Infektion zu ermitteln. Die Infektion führt innerhalb von 2-4 Tagen zum Tod der Tiere.
Beschreibung der Methode: Albino Mäuse (NMRI, Männchen, 15-20 g Körpergewicht) werden intravenös mit Candida albicans Hefezellen infiziert (Stamm 200/175), die frisch auf Malzagar vorkultiviert wurden und in physiologischer Kochsalzlösung suspendiert wurden. Die Infektionsdosis, die in dem angegebenen Zeitrahmen zur Lethalität führt, wurde photometrisch eingestellt und enthielt eine Million Hefezellen pro Maus.
Die zu prüfenden Verbindungen werden entweder alleine oder in Kombination mit einem Standardantimykotikum verabreicht. Im durchgeführten Test wurde ein Kombinationspräparat verwendet, wobei als Standardantimykotikum Fluconazol (Fa. Pfizer) diente. Applikationswege sind je nach Substanzgruppe unterschiedlich, wobei der oralen Applikation der Vorzug gegeben wird. Die Mäuse werden 4 Wochen beobachtet, die Mortalität wird täglich registriert, und die Überlebenszeiten der einzelnen Gruppen werden gemittelt und untereinander verglichen. Gruppengröße beträgt durchschnittlich 10 Tiere.
Der Vergleich der Mittelwerte geschieht mit dem Students T Test.
Dosierungen: Fluconazol jeweils 8 x p.o. 50 mg/kg/Tag β-Hydroxy-ethylamin jeweils 14 x p.o. 50 mg/kg/Tag

[2] = system: liposomalen Phospholipase A1 von Säugern; conditions: in-vitro-Test; Biochem. Pharmacol. 34, 521-24, 1985; cited from earlier work
Plasmopara viticola = test: Fungicidal activity on vine seedlings inoculated with Plasmopara viticola; type: in vivo, Weinsämlinge; conditions: untreated infected control = 100
Experimental: Weinsämlinge wurden ca. 6 Wochen nach der Aussaat mit wäßrigen Suspensionen der zu untersuchenden Verbindungen gleichmäßig benetzt. Nach dem Antrocknen des Spritzbelages wurden die Pflanzen mit einer Sporensuspension von Plasmopara viticola inokuliert und für kurze Zeit in eine Klimakammer (23 °C und 80-90 % rel. Luftfeuchte) gestellt. Nach einer Inkubationszeit von 7 Tagen wurden die Pflanzen zur Sporulation des Pilzes erneut für einige Stunden in die Klimakammer gestellt. Anschließend erfolgte die Auswertung des Befalls. Der Befallsgrad wird ausgedrückt in % befallener Blattfläche im Vergleich zu den unbehandelten, infizierten Kontrollpflanzen und ist in Tabelle 4 wiedergegeben.

[3] = 125 ppm Wirkstoff (mg Wirkstoff/Liter Spritzbrühe)
[4] = 250 ppm Wirkstoff (mg Wirkstoff/Liter Spritzbrühe)
[5] = 500 ppm Wirkstoff (mg Wirkstoff/Liter Spritzbrühe)

Cc1cc(COc2ccc(Oc3ccc(Cl)cc3)cc2)n(O)c(=O)c1 [Rilopirox, reference compound]
killing at 5 µg/mL [1]: 96.2% | killing at 10 µg/mL [1]: 100% | killing at 20 µg/mL [1]: 100% | killing at 40 µg/mL [1]: 100% | killing at 80 µg/mL [1]: 100% | killing at 2.5 µg/mL [1]: 94.1%

CC(C)CC(C)NCC(O)COc1ccccc1C1CCCC1 (centres unmarked) [Verbindung 1.10]
Überlebenszeit (bez. auf Fluconazol = 100 % ) (Candida albicans): 149%

CC(C)(C)c1ccc(OCC(O)CNc2ccccc2)cc1 (centres unmarked) [Verbindung 1.16]
Verlängerung der Überlebenszeit (Candida albicans): 65% | Überlebenszeit (bez. auf Fluconazol = 100 % ) (Candida albicans): 165%

CC(C)NCC(O)COc1cccc2ccccc12 (centres unmarked) [Propranolol]
Hemmwirkung gegenüber Phospholipase aus Leberzellen [2]: wirksamste Substanz

OC(Cn1cncn1)(Cn1cncn1)c1ccc(F)cc1F [Fluconazol, reference compound]
Überlebenszeit (bez. auf Fluconazol = 100 % ) (Candida albicans; po): 100%

CC(C)(C)c1ccc(OCC(O)CNCc2cccs2)cc1 (centres unmarked) [Verbindung 1.32]
mit Plasmopara viticola befallene Blattfläche in % (Plasmopara viticola; [3]): 0% | mit Plasmopara viticola befallene Blattfläche in % (Plasmopara viticola; [4]): 0% | mit Plasmopara viticola befallene Blattfläche in % (Plasmopara viticola; [5]): 0%

COc1ccc(CC(C)(C)NCC(O)COc2ccccc2C2CCCC2)cc1 (centres unmarked) [Verbindung 1.18]
killing at 5 µg/mL [1]: 95.7% | killing at 10 µg/mL [1]: 100% | killing at 20 µg/mL [1]: 100% | killing at 40 µg/mL [1]: 100% | killing at 80 µg/mL [1]: 100% | killing at 2.5 µg/mL [1]: 79.3%

CCCCNCC(O)COc1ccc(C(C)(C)C)cc1 (centres unmarked) [Verbindung 1.37]
mit Plasmopara viticola befallene Blattfläche in % (Plasmopara viticola; [3]): 0% | mit Plasmopara viticola befallene Blattfläche in % (Plasmopara viticola; [4]): 0% | mit Plasmopara viticola befallene Blattfläche in % (Plasmopara viticola; [5]): 0%
